Assay results taken from ChEMBL document CHEMBL5705888, “Substrate specificity and inhibitors of LRRK2, a protein kinase mutated in Parkinson's disease” (Biochem J, 2009).

Tests used:
[1] = target: T1, Mitogen-activated protein kinase kinase kinase kinase 2 (Homo sapiens) (UniProt Q12851); experiment: Inhibition of GCK (unknown origin) at 0.1 uM incubated for 30 mins in presence of [gamma-33P]ATP by multidrop micro reagent based assay relative to control
T1 sequence (whole entry): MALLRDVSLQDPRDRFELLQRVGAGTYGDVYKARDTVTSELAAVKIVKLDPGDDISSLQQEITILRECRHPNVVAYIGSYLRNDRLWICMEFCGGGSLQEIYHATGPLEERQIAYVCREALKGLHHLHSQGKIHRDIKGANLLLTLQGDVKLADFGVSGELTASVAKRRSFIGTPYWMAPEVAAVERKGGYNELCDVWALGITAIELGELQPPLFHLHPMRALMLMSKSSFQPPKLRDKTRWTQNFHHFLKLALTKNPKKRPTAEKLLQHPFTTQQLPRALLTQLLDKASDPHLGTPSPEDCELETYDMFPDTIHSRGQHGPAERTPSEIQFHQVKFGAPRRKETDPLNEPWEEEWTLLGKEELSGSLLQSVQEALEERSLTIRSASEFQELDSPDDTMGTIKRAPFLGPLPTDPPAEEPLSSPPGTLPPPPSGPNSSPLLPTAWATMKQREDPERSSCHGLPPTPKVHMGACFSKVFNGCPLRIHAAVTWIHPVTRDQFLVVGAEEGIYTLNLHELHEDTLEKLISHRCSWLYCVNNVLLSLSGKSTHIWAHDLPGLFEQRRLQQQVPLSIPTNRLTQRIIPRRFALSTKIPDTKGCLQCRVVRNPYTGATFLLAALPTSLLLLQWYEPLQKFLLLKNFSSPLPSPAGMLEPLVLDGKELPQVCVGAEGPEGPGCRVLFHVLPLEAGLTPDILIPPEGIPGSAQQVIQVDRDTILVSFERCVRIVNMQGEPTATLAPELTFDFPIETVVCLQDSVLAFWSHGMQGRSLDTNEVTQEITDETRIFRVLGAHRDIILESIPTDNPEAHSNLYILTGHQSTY

[2] = target: Insulin-like growth factor 1 receptor (Homo sapiens) (UniProt P08069); experiment: Inhibition of IGF-1R (unknown origin) at 10 uM incubated for 30 mins in presence of [gamma-33P]ATP by multidrop micro reagent based assay relative to control
Insulin-like growth factor 1 receptor (Homo sapiens), sequence (P08069 31-736 limits assumed): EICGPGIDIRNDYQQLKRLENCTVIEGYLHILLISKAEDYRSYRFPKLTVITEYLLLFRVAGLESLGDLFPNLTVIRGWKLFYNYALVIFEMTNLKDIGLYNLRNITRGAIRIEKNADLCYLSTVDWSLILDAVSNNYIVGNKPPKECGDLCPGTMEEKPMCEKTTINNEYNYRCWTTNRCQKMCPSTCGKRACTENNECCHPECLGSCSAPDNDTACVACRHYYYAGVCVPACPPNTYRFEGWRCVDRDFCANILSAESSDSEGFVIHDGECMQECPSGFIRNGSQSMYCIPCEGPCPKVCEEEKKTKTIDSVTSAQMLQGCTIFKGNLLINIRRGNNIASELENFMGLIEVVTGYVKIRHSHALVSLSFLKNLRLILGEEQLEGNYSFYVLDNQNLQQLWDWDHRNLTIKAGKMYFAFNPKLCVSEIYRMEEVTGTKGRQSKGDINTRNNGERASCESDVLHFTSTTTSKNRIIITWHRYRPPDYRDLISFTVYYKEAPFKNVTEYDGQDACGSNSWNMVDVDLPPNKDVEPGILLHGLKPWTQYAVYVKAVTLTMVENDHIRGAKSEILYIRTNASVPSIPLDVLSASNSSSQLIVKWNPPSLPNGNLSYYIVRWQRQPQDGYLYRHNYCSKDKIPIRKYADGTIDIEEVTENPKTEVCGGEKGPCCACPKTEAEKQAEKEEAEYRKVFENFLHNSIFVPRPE
Insulin-like growth factor 1 receptor (Homo sapiens), sequence (P08069 741-1367 limits assumed): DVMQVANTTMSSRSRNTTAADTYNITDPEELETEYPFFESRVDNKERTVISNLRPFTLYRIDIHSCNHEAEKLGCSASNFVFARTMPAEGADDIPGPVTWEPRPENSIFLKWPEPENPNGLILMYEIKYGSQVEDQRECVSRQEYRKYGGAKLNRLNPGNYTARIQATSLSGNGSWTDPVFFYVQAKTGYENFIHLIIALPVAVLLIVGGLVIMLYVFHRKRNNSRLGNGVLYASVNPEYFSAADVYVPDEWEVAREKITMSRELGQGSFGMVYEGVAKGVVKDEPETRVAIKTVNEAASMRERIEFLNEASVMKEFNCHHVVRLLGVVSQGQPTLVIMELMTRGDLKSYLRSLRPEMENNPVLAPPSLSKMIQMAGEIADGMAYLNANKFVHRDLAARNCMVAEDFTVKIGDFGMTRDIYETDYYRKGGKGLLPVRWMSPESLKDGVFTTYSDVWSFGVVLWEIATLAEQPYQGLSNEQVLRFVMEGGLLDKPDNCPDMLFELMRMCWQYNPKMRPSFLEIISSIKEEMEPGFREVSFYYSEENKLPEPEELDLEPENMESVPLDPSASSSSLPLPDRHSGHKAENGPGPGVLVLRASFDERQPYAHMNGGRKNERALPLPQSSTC

[3] = target: T2, Serine/threonine-protein kinase Nek2 (Homo sapiens) (UniProt P51955); experiment: Inhibition of NEK2a (unknown origin) at 10 uM incubated for 30 mins in presence of [gamma-33P]ATP by multidrop micro reagent based assay relative to control; values are per cent of control
T2 sequence (whole entry): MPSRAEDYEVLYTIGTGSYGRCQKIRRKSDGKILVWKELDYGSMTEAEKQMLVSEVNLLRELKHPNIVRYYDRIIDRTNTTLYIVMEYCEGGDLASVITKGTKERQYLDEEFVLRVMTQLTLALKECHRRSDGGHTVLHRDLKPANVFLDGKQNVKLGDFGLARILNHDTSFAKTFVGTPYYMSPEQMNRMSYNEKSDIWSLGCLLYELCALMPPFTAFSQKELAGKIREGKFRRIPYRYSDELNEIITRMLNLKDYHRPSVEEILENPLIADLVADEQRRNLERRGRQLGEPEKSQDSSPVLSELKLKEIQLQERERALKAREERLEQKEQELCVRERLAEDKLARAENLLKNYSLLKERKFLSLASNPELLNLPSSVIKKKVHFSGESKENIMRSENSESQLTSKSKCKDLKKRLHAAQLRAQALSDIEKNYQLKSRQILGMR

[4] = target: Mitogen-activated protein kinase 3 (Homo sapiens) (UniProt P27361); experiment: Inhibition of ERK1 (unknown origin) at 10 uM incubated for 30 mins in presence of [gamma-33P]ATP by multidrop micro reagent based assay relative to control; values are per cent of control
Mitogen-activated protein kinase 3 (Homo sapiens), sequence (P27361 whole entry): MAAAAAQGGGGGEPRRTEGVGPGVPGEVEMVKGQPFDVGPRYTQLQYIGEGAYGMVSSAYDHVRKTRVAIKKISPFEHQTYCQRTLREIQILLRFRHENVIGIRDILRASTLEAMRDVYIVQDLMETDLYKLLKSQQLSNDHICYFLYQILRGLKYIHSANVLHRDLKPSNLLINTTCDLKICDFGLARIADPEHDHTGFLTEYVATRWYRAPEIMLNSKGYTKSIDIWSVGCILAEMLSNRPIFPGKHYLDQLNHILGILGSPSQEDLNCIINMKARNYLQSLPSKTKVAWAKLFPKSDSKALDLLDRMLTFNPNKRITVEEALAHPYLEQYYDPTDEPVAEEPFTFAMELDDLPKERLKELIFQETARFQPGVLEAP

[5] = target: Serine/threonine-protein kinase pim-3 (Homo sapiens) (UniProt Q86V86); experiment: Inhibition of PIM3 (unknown origin) at 10 uM incubated for 30 mins in presence of [gamma-33P]ATP by multidrop micro reagent based assay relative to control; values are per cent of control
[6] = target: Dual specificity tyrosine-phosphorylation-regulated kinase 1A (Homo sapiens) (UniProt Q13627); experiment: Inhibition of DYRK1A (unknown origin) at 1 uM incubated for 30 mins in presence of [gamma-33P]ATP by multidrop micro reagent based assay relative to control; values are per cent of control
[7] = target: T3, Ephrin type-B receptor 3 (Homo sapiens) (UniProt P54753); experiment: Inhibition of EPH-B3 (unknown origin) at 10 uM incubated for 30 mins in presence of [gamma-33P]ATP by multidrop micro reagent based assay relative to control; values are per cent of control
T3 sequence (whole entry): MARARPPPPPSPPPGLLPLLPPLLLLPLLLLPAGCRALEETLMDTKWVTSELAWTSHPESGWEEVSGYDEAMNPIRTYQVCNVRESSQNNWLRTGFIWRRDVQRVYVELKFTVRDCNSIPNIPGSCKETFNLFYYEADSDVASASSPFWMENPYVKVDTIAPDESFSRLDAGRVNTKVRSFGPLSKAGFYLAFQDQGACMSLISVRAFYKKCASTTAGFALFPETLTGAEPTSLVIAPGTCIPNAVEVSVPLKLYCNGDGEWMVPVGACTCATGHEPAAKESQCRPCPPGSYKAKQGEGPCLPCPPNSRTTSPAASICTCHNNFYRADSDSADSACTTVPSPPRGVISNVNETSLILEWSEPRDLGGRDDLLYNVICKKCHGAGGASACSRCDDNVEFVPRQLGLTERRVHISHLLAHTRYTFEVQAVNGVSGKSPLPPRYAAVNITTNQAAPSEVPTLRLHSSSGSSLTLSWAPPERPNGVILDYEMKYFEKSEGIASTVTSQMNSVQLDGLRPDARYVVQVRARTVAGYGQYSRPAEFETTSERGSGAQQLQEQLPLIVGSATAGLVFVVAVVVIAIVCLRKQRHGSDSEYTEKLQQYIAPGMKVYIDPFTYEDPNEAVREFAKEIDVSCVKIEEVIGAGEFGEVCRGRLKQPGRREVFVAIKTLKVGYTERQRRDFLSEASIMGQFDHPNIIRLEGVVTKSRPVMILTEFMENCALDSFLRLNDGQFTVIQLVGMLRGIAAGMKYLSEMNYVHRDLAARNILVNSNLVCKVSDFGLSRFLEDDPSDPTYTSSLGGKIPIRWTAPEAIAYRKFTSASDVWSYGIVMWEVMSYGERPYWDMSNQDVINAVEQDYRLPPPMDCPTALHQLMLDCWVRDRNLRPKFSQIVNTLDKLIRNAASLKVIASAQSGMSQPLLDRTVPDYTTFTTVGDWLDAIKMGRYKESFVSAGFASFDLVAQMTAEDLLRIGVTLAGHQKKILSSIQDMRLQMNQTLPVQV

## CCN(CC)CCNC(=O)c1c(C)[nH]c(/C=C2\C(=O)Nc3ccc(F)cc32)c1C
[1]
  inhibition: 45%

## C[C@@H](N)[C@H]1CC[C@H](C(=O)Nc2ccncc2)CC1
[2]
  inhibition: 99%
[3]
  residual activity: 104%
[4]
  residual activity: 92%
[5]
  residual activity: 87%

## CC1=C(C(=O)Nc2cc3cn[nH]c3cc2F)C(c2ccc(C(F)(F)F)cc2)CC(=O)N1 (configuration not stated)
[6]
  residual activity: 98%

## O=S(=O)(c1cccc2cnccc12)N1CCCNCC1 [FASUDIL]
[7]
  residual activity: 65%
